Laboratory results reported in patent US12552824B2, “C-mannoside compounds useful for the treatment of urinary tract infections” (GLAXOSMITHKLINE INTELLECTUAL PROPERTY DEVELOPMENT LIMITED, priority 2018, dated 2026).

Key:
[1] = Rat pharmacokinetics: IV infusion 1 mg/kg, then PO 5 mg/kg; blood and urine by LC-MS/MS; type: in vivo, Male Wistar Han rats; conditions: for bioavailability: male, Wistar Han; for bioavailability / AUC: whole blood; for bioavailability / % F: oral bioavailability, ratio of dose-normalised AUC PO (5 mg/kg) and IV infusion (1 mg/kg); for Ue % po: percentage of oral dose (5 mg/kg) eliminated unchanged in urine; for AUC: area under blood concentration-time profile, PO 5 mg/kg, male Wistar Han rats, n = 3
Text: General Assays for Obtaining AUC Oral h*μm, % F, and Ue % PO Values
Male Wistar Han rats were purchased from Vital River Laboratory Animal Technology Co. Ltd (Beijing, China). The animals were approx. 6-8 weeks old with body weights of 200-300 g on the dosing date. The animals were housed in a 12-hour light/12-hour dark cycle environment and had free access to food and water. All animals were fed prior to dosing. Studies were approved by the Pharmaron Institutional Animal Care and Use Committee (IACUC).
Test article was administered as an intravenous infusion for 1 hour (1 mg/kg) at 5 mL/kg/h. After 48 h, animals received a single oral dose (5 mg/kg, free form) at a dose volume of 10 mL/kg, respectively. Blood samples were collected at various time points after IV infusion and PO administrations. Urine samples were collected at various time points after IV infusion and PO administrations.
Test article was dissolved in DMSO with vortexing and sonification to obtain a stock solution. An aliquot of the stock solution was mixed with 10% HP-β-CD in saline with vortexing to obtain a solution with concentration at 0.2 mg/mL of test article.
Test article was added into 1% Methyl Cellulose with vortexing and sonication to obtain a homogeneous suspension with concentration at 0.5 mg/mL of test article.
For IV infusion (1 mg/kg) administration, blood samples were collected from each animal at 0, 0.25, 0.5, 0.75, 1, 1.08, 1.25, 1.5, 1.75, 2, 3, 5, 8, 12, 24 hour post-dose.
For PO (5 mg/kg) administration, blood samples were collected from each animal at 0, 0.25, 0.5, 1, 1.5, 2, 3, 4, 6, 8, 12, 24 hour post-dose.
Blood samples (50 μL) were collected from each animal via jugular vein. These blood samples were placed into tubes containing K2EDTA. Whole blood was mixed with same volume of water and inverted several times. The blood samples were stored at −75±15° C. until analysis.
For IV infusion (1 mg/kg) administration, urine samples were collected from each animal at 0-4, 4-8, 8-12, 12-24 hour post-dose.
For PO (5 mg/kg) administration, urine samples were collected from each animal at 0-4, 4-8, 8-12, 12-24 hour post-dose.
Urine samples were collected continuously into containers maintained over dry ice at the intervals outlined below and stored at −80° C. prior to analysis.
55 μL of standards, 55 μL of QC samples or 55 μL of unknown samples (50 μL of blood or urine with 5 μL 50% acetonitrile) were mixed to 200 μL of acetonitrile containing IS (dexamethasone) to precipitate proteins. Then the samples were vortexed for 30 sec. After centrifugation at 4° C., 4700 rpm for 30 min, and 5 μL of the supernatant was injected into the LC-MS/MS system for quantitative analysis.
Test article blood and urine concentrations for each animal following IV infusion at 1 mg/kg and PO at 5 mg/kg were used to calculate pharmacokinetic parameters by employing a non-compartmental analysis (Phoenix™ WinNonlin® 7.0). The linear trapezoidal algorithm was used for AUC calculation.

FimH = target: T1, FimH (Escherichia coli, UniProt Q1R2J4); type: cell-based; conditions: concentration reducing bacterial agglutination of guinea pig red blood cells by greater than 90%; UTI89 bacteria;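 also: concentration in nM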
T1 construct: endogenous in cells; host or cells: E. coli UTI89 whole bacteria, agglutinating guinea pig red blood cells
Procedure: Hemagglutination Inhibition Assay (HAI)
The hemagglutination inhibition (HAI) assay was performed with UTI89 bacteria and guinea pig red blood cells, as previously described (S. J. Hultgren, W. R. Schwan, A. J. Schaeffer, J. L. Duncan Infect. Immun. 1986, 54, 613-620 and Jarvis, C.; Han, Z.; Kalas, V.; Klein, R.; Pinkner, J. S.; Ford, B.; Binkley, J.; Cusumano, C. K.; Cusumano, Z.; Mydock-McGrane, L.; Hultgren, S. J.; Janetka, J. W., ChemMedChem 2016, 11, 367-373).

With C=Cc1c(F)cc(-c2ccc([C@@H](O)[C@H]3O[C@H](CO)[C@@H](O)[C@H](O)[C@@H]3O)c(C)c2)cc1F [Example 4, (2R,3S,4S,5S,6R)-2-((R)-(3′,5′-Difluoro-3-methyl-4′-vinyl-[1,1′-biphenyl]-4-yl)(hydroxy)methyl)-6-(hydroxymethyl)tetrahydro-2H-pyran-3,4,5-triol] the bioavailability [1] was 10 to 30%, the Ue % po [1] was ““++” (0.5 <= x <= 5%)” and the AUC [1] was less than 0.5 µM·h. For the same molecule, the “HAI titer EC > 90” value (FimH) was ““++++” (<50 “++++”)”.
For Cc1cc(-c2ccc(C(F)(F)F)c(F)c2)ccc1[C@@H](O)[C@H]1O[C@H](CO)[C@@H](O)[C@H](O)[C@@H]1O [Example 5, (2R,3S,4S,5S,6R)-2-((R)-(3′-Fluoro-3-methyl-4′-(trifluoromethyl)-[1,1′-biphenyl]-4-yl)(hydroxy)methyl)-6-(hydroxymethyl)tetrahydro-2H-pyran-3,4,5-triol], the bioavailability [1] was 10 to 30%, the Ue % po [1] was ““++” (0.5 <= x <= 5%)” and the AUC [1] was 0.5 to 1 µM·h. The “HAI titer EC > 90” value (FimH) was ““++++” (<50 “++++”)”.
With Cc1cc(-c2cc(F)cc(C(F)(F)F)c2)ccc1[C@@H](O)[C@H]1O[C@H](CO)[C@@H](O)[C@H](O)[C@@H]1O [Example 6, (2R,3S,4S,5S,6R)-2-((R)-(3′-Fluoro-3-methyl-5′-(trifluoromethyl)-[1,1′-biphenyl]-4-yl)(hydroxy)methyl)-6-(hydroxymethyl)tetrahydro-2H-pyran-3,4,5-triol] the bioavailability [1] was 10 to 30%, the Ue % po [1] was ““++” (0.5 <= x <= 5%)” and the AUC [1] was less than 0.5 µM·h. The “HAI titer EC > 90” value (FimH) was ““++++” (<50 “++++”)”.
With Cc1cc(-c2cc(F)c(F)c(F)c2)ccc1[C@@H](O)[C@H]1O[C@H](CO)[C@@H](O)[C@H](O)[C@@H]1O [Example 7, (2R,3S,4S,5S,6R)-2-((R)-Hydroxy(3′,4′,5′-trifluoro-3-methyl-[1,1′-biphenyl]-4-yl)methyl)-6-(hydroxymethyl)tetrahydro-2H-pyran-3,4,5-triol] the bioavailability [1] was greater than 30%, the Ue % po [1] was ““+++” (>5%)” and the AUC [1] was greater than 1 µM·h. For the same molecule, the “HAI titer EC > 90” value (FimH) was ““++++” (<50 “++++”)”.
For OC[C@H]1O[C@H]([C@H](O)c2ccc(-c3cc(F)cc(F)c3)cc2C(F)(F)F)[C@@H](O)[C@@H](O)[C@@H]1O [Example 8, (2R,3S,4S,5S,6R)-2-((R)-(3′,5′-Difluoro-3-(trifluoromethyl)-[1,1′-biphenyl]-4-yl)(hydroxy)methyl)-6-(hydroxymethyl)tetrahydro-2H-pyran-3,4,5-triol], the bioavailability [1] was greater than 30%, the Ue % po [1] was ““++” (0.5 <= x <= 5%)” and the AUC [1] was less than 0.5 µM·h. The “HAI titer EC > 90” value (FimH) was ““++++” (<50 “++++”)”.
In the case of Cc1cc(-c2cc(F)cc(F)c2)ccc1[C@@H](O)[C@H]1O[C@H](CO)[C@@H](O)[C@H](O)[C@@H]1O [Example 9, (2R,3S,4S,5S,6R)-2-((R)-(3′,5′-Difluoro-3-methyl-[1,1′-biphenyl]-4-yl)(hydroxy)methyl)-6-(hydroxymethyl)tetrahydro-2H-pyran-3,4,5-triol], the bioavailability [1] is reported as greater than 30%, the Ue % po [1] is reported as ““+++” (>5%)” and the AUC [1] is reported as 0.5 to 1 µM·h. For the same molecule, the “HAI titer EC > 90” value (FimH) was ““++++” (<50 “++++”)”.
For Cc1cc(F)c(-c2ccc([C@@H](O)[C@H]3O[C@H](CO)[C@@H](O)[C@H](O)[C@@H]3O)c(C)c2)cc1Cl [Example 11], the “% F” value [1] was ““+++” (>30%)”, the Ue % po [1] was ““++” (0.5 <= x <= 5%)” and the “HAI titer EC > 90” value (FimH) was ““+++” (50-200 “+++”)”.
In the case of Cc1cc(-c2ccc(Cl)c(Cl)c2)ccc1[C@@H](O)[C@H]1O[C@H](CO)[C@@H](O)[C@H](O)[C@@H]1O [Example 15], the “% F” value [1] is reported as ““++” (10 <= x <= 30%)”, the Ue % po [1] is reported as ““++” (0.5 <= x <= 5%)” and the “HAI titer EC > 90” value (FimH) is reported as ““++++” (<50 “++++”)”.
With Cc1cc(-c2cc(Cl)cc(Cl)c2)ccc1[C@@H](O)[C@H]1O[C@H](CO)[C@@H](O)[C@H](O)[C@@H]1O [Example 16] the “% F” value [1] was ““++” (10 <= x <= 30%)”, the Ue % po [1] was ““++” (0.5 <= x <= 5%)” and the “HAI titer EC > 90” value (FimH) was ““++++” (<50 “++++”)”.
For COc1cc(F)cc(-c2ccc([C@@H](O)[C@H]3O[C@H](CO)[C@@H](O)[C@H](O)[C@@H]3O)c(C)c2)c1 [Example 24], the “% F” value [1] was ““++” (10 <= x <= 30%)”, the Ue % po [1] was ““++” (0.5 <= x <= 5%)” and the “HAI titer EC > 90” value (FimH) was ““++++” (<50 “++++”)”.
For OC[C@H]1O[C@H]([C@H](O)c2c(F)cc(-c3cc(F)cc(F)c3)cc2C(F)(F)F)[C@@H](O)[C@@H](O)[C@@H]1O [Example 32], the “% F” value [1] was ““++” (10 <= x <= 30%)”, the Ue % po [1] was ““++” (0.5 <= x <= 5%)” and the “HAI titer EC > 90” value (FimH) was ““++++” (<50 “++++”)”.
With COc1cc(-c2ccc([C@@H](O)[C@H]3O[C@H](CO)[C@@H](O)[C@H](O)[C@@H]3O)c(C)c2)cc(C(F)(F)F)c1 [Example 61] the “% F” value [1] was ““++” (10 <= x <= 30%)”, the Ue % po [1] was ““+” (<0.5%)” and the “HAI titer EC > 90” value (FimH) was ““++++” (<50 “++++”)”.
In the case of Cc1cc(-c2cc(F)c(C(F)(F)F)c(F)c2)ccc1[C@@H](O)[C@H]1O[C@H](CO)[C@@H](O)[C@H](O)[C@@H]1O [Example 64], the “% F” value [1] is reported as ““++” (10 <= x <= 30%)”, the Ue % po [1] is reported as ““++” (0.5 <= x <= 5%)” and the “HAI titer EC > 90” value (FimH) is reported as ““++++” (<50 “++++”)”.
In the case of Cc1cc(-c2cc(F)c(F)c(Cl)c2)ccc1[C@@H](O)[C@H]1O[C@H](CO)[C@@H](O)[C@H](O)[C@@H]1O [Example 73], the “% F” value [1] is reported as ““++” (10 <= x <= 30%)”, the Ue % po [1] is reported as ““++” (0.5 <= x <= 5%)” and the “HAI titer EC > 90” value (FimH) is reported as ““++++” (<50 “++++”)”.
In the case of Cc1cc(-c2cc(C(F)(F)F)cc(C(F)(F)F)c2)ccc1[C@@H](O)[C@H]1O[C@H](CO)[C@@H](O)[C@H](O)[C@@H]1O [Example 74], the “% F” value [1] is reported as ““++” (10 <= x <= 30%)”, the Ue % po [1] is reported as ““+” (<0.5%)” and the “HAI titer EC > 90” value (FimH) is reported as ““++++” (<50 “++++”)”.
In the case of Cc1cc(-c2cc(F)c(OC(C)C)c(F)c2)ccc1[C@@H](O)[C@H]1O[C@H](CO)[C@@H](O)[C@H](O)[C@@H]1O [Example 93], the “% F” value [1] is reported as ““++” (10 <= x <= 30%)”, the Ue % po [1] is reported as ““+” (<0.5%)” and the “HAI titer EC > 90” value (FimH) is reported as ““++++” (<50 “++++”)”.
For CCc1c(F)cc(-c2ccc([C@@H](O)[C@H]3O[C@H](CO)[C@@H](O)[C@H](O)[C@@H]3O)c(C)c2)cc1F [Example 94], the “% F” value [1] was ““++” (10 <= x <= 30%)”, the Ue % po [1] was ““+” (<0.5%)” and the “HAI titer EC > 90” value (FimH) was ““++++” (<50 “++++”)”.
With Cc1cc(-c2cc(F)c(OC(F)(F)F)c(F)c2)ccc1[C@@H](O)[C@H]1O[C@H](CO)[C@@H](O)[C@H](O)[C@@H]1O [Example 101] the “% F” value [1] was ““++” (10 <= x <= 30%)”, the Ue % po [1] was ““+” (<0.5%)” and the “HAI titer EC > 90” value (FimH) was ““++++” (<50 “++++”)”.
